Data published in patent publication US12692229B2, “Masp-2 inhibitors and methods of use” (Omeros Corporation, priority 2019, dated 2026).
Structures can show the parent of a compound that is named as a salt.

biological target: T1, MASP-2 (CCP1-CCP2-SP) (Homo sapiens, UniProt O00187); test: Enzymatic Assay for MASP-2 (fluorogenic substrate); assay type: biochemical; conditions: room temperature, 20 mM HEPES pH 7.4, 140 mM NaCl, 0.1% Tween 20, 20 min
T1 construct: 15 μL of Enzyme MASP-2 (CCP1-CCP2-SP) in Assay Buffer
Procedure: Enzymatic Assay for MASP-2
The MASP-2 assay utilizes a fluorogenic substrate, based on the cleavage site for its natural substrate C2. The assay is run at room temperature in an assay buffer containing 20 mM HEPES, pH 7.4, 140 mM NaCl and 0.1% Tween 20. Assay parameters are adjusted such that the assay is linear with respect to time, enzyme, and substrate concentrations. Under these optimized assays conditions, IC50 values are equivalent to Ki values, except in a few cases of “tight binding” inhibitors. Cases of “tight binding” or possible “slow binding” inhibitors are handled by the methods described in Copeland R. A. (2013) Evaluation of Enzyme Inhibitors in Drug Discovery. 2nd Ed., John Wiley and Sons, Inc., Chapters 5-7.
The MASP-2 assay protocol is carried out as follows. Test compounds are serially diluted in DMSO and then 100 nL of each dilution is transferred to the assay plate(s). 10 μL of Assay Buffer is added, followed by 15 μL of Enzyme MASP-2 (CCP1-CCP2-SP) in Assay Buffer. 15 μL of Substrate in Assay Buffer is then added and mixed to start the reactions. After 20 min at room temperature, 15 μL of a stop solution (0.1 M acetic acid) is added, mixed and the plates are read on a SpectraMax i3× Microplate Reader and exported as Excel files. Each assay plate included a “no inhibitor” (DMSO Only) control, a “no enzyme” control and a reference inhibitor control. % Activity values=100*(average test comp. fluorescence-average “no enzyme” fluorescence)/(average “DMSO only” fluorescence-average “no enzyme” fluorescence). IC50 and Ki values are very reproducible, falling well within ±2-fold.

T1 sequence (O00187 445-686 limits assumed): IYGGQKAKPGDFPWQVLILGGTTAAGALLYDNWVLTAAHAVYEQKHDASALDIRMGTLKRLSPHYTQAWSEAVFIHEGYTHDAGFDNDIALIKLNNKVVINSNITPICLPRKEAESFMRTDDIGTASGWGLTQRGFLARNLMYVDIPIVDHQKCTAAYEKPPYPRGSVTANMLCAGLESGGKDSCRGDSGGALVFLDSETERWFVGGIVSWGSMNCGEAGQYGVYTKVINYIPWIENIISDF
T1 sequence (O00187 287-444 partner limits assumed): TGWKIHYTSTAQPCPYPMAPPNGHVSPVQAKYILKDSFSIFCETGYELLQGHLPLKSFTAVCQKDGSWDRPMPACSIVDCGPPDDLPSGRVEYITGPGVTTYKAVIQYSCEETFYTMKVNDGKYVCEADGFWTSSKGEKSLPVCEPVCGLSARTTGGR

| Compound | Ki |
| --- | --- |
| COC[C@H]1C[C@@H](C(=O)NCc2ccc(C(=N)N)cc2)N(C(=O)[C@H](N)CCc2ccccc2)C1 [Compound I-2, (2S,4S)-1-((R)-2-amino-4-phenylbutanoyl)-N-(4-carbamimidoylbenzyl)-4-(methoxymethyl)pyrrolidine-2-carboxamide dihydrochloride] | < 500 nM |
| N=C(N)c1ccc(CNC(=O)[C@@H]2C[C@@H](c3ccccc3)CN2C(=O)[C@H](N)CCc2ccccc2)cc1 [Compound I-11, (2S,4S)-1-((R)-2-amino-4-phenylbutanoyl)-N-(4-carbamimidoylbenzyl)-4-phenylpyrrolidine-2-carboxamide dihydrochloride] | < 500 nM |
| N=C(N)c1ccc(CNC(=O)[C@@H]2CC(n3cccn3)CN2C(=O)[C@H](N)CCc2ccccc2)cc1 (stereo partly drawn) [Compound I-22, Dihydrochloride] | < 500 nM |

Other lines, results leading:

| Ki | Compound |
| --- | --- |
| < 500 nM | COC(=O)[C@@H]1C[C@@H](C(=O)NCc2ccc(C(=N)N)cc2)N(C(=O)[C@H](N)CCc2ccccc2)C1 [Compound I-1, Methyl (3R,5S)-1-((R)-2-amino-4-phenylbutanoyl)-5-((4-carbamimidoylbenzyl)carbamoyl)pyrrolidine-3-carboxylate ditrifluoroacetate] |
| < 500 nM | N=C(N)c1ccc(CNC(=O)[C@@H]2C[C@H](c3ccccc3)CN2C(=O)[C@H](N)CCc2ccccc2)cc1 [Compound I-3, (2S,4R)-1-((R)-2-amino-4-phenylbutanoyl)-N-(4-carbamimidoylbenzyl)-4-phenylpyrrolidine-2-carboxamide dihydrochloride] |
| < 500 nM | N#C[C@H]1C[C@@H](C(=O)NCc2ccc(C(=N)N)cc2)N(C(=O)[C@H](N)CCc2ccccc2)C1 [Compound I-6, (2S,4S)-1-((R)-2-amino-4-phenylbutanoyl)-N-(4-carbamimidoylbenzyl)-4-cyanopyrrolidine-2-carboxamide ditrifluoroacetate] |
